Test results taken from patent US12281121B2, “N-containing heteroaryl derivative and pharmaceutical composition comprising same as active ingredient for prevention or treatment of cancer” (VORONOI Inc., priority 2019, dated 2025).

Legend:
[1] = system: Ba/F3 (naive) cells; experiment: Cell proliferation inhibition, CellTiter-Glo; assay type: cell-based; settings: Mus musculus, BaF3; Ba/F3 not transduced, 72 hours
How it was run: (§1)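 Ba/F3 lines (naive or RET-fusion-transduced, IL-3 medium) and LC-2/ad cells exposed 72 h to compound, 12 three-fold dilutions spanning 0.3 nM–50 μM final. Viability read by CellTiter-Glo luminescence, in triplicate; GI50 derived from growth ratio (%) versus control.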

[2] = system: Ba/F3 CCDC6-RET (WT) cells; experiment: Cell proliferation inhibition, CellTiter-Glo; assay type: cell-based; settings: BaF3/CCDC6-RET, 72 hours
How it was run: as §1

[3] = system: Ba/F3 KIF5B-RET (V804M) cells; experiment: Cell proliferation inhibition, CellTiter-Glo; assay type: cell-based; settings: Mus musculus, BaF3, 72 hours
How it was run: as §1

[4] = system: Ba/F3 KIF5B-RET (WT) cells; experiment: Cell proliferation inhibition, CellTiter-Glo; assay type: cell-based; settings: Mus musculus, BaF3, 72 hours
How it was run: as §1

[5] = system: LC-2/ad cells (with CCDC6-RET gene); experiment: Cell proliferation inhibition, CellTiter-Glo; assay type: cell-based; settings: Homo sapiens; LC-2/ad lung cancer cell line, 72 hours
How it was run: as §1

[6] = system: TT cells; experiment: Cell proliferation inhibition, CellTiter-Glo; assay type: cell-based; settings: Homo sapiens; TT thyroid cancer cell line, 72 hours
[7] = target: T1, ABL1(Q252H)-phosphorylated (Homo sapiens, UniProt P00519, Q252H); experiment: ScanMAX Kinase analysis panel (DiscoverX); assay type: binding; settings: read-out: adjusted percentage (% control)
T1 construct: purchased DiscoverX
Experimental: (§2) The following experiment was performed in order to evaluate the inhibitory activity of the compound according to the present invention against more enzymes. Specifically, for Examples 1 and 3 selected among the Example compounds of the present invention, the enzyme (kinase) selectivity was set to be measured by commissioning DiscoverX, and an experiment was conducted using a ScanMAX™ Kinase analysis panel. In this case, the concentration of the drug treated with the enzyme was set to 1 μM in DMSO, the adjusted percentage (% control) was determined in the same manner as in the following Equation 1, and the results are shown in the following Table 3. (Example compound−Positive control)/(Negative control−Positive control)×100 [Equation 1]
(§3) In addition, the enzyme selectivity of the present invention was determined to be active against the corresponding enzyme when the adjusted percentage was <35% (that is, less than 35%).

[8] = target: T2, ABL1(Y253F)-phosphorylated (Homo sapiens, UniProt P00519, Y253F); experiment: ScanMAX Kinase analysis panel (DiscoverX); assay type: binding; settings: read-out: adjusted percentage (% control)
T2 construct: purchased DiscoverX
Experimental: as §2, §3

[9] = target: T3, ABL1-phosphorylated (Homo sapiens, UniProt P00519); experiment: ScanMAX Kinase analysis panel (DiscoverX); assay type: binding; settings: read-out: adjusted percentage (% control)
T3 construct: purchased DiscoverX
Experimental: as §2, §3

[10] = target: T4, DAPK3 (Homo sapiens, UniProt O43293); experiment: ScanMAX Kinase analysis panel (DiscoverX); assay type: binding; settings: read-out: adjusted percentage (% control)
T4 construct: purchased DiscoverX
T4 sequence (O43293 whole entry): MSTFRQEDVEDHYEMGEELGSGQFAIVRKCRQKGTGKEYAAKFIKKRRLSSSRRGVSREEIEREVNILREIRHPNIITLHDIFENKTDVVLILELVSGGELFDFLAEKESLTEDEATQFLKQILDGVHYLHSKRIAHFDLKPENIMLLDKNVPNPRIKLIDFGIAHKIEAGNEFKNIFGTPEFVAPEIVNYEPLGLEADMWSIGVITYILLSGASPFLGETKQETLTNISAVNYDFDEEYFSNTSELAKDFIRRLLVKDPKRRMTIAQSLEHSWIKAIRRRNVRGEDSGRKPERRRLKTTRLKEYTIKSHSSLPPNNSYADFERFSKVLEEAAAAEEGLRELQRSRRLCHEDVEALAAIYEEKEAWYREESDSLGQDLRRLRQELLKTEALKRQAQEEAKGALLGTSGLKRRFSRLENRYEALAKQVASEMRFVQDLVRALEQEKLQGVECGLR
Experimental: as §2, §3

[11] = target: T5, EGFR(T790M) (Homo sapiens, UniProt P00533, T790M); experiment: ScanMAX Kinase analysis panel (DiscoverX); assay type: binding; settings: read-out: adjusted percentage (% control)
T5 construct: purchased DiscoverX ScanMAX Kinase analysis panel
Experimental: as §2, §3

[12] = target: T6, FLT3(D835Y) (Homo sapiens, UniProt P36888, D835Y); experiment: ScanMAX Kinase analysis panel (DiscoverX); assay type: binding; settings: read-out: adjusted percentage (% control)
T6 construct: purchased DiscoverX ScanMAX Kinase analysis panel
Experimental: as §2, §3

[13] = system: FLT3(ITD, D835V); experiment: ScanMAX Kinase analysis panel (DiscoverX); assay type: binding; settings: 1 μM
Experimental: as §2, §3

[14] = system: FLT3(ITD, F691L); experiment: ScanMAX Kinase analysis panel (DiscoverX); assay type: binding; settings: 1 μM
Experimental: as §2, §3

[15] = target: T7, FLT3(N841I) (Homo sapiens, UniProt P36888, N841I); experiment: ScanMAX Kinase analysis panel (DiscoverX); assay type: binding; settings: read-out: adjusted percentage (% control)
T7 construct: purchased DiscoverX ScanMAX Kinase analysis panel
Experimental: as §2, §3

[16] = target: T8, HCK (Homo sapiens, UniProt P08631); experiment: ScanMAX Kinase analysis panel (DiscoverX); assay type: binding; settings: read-out: adjusted percentage (% control)
T8 construct: purchased DiscoverX ScanMAX Kinase analysis panel
T8 sequence (P08631 whole entry): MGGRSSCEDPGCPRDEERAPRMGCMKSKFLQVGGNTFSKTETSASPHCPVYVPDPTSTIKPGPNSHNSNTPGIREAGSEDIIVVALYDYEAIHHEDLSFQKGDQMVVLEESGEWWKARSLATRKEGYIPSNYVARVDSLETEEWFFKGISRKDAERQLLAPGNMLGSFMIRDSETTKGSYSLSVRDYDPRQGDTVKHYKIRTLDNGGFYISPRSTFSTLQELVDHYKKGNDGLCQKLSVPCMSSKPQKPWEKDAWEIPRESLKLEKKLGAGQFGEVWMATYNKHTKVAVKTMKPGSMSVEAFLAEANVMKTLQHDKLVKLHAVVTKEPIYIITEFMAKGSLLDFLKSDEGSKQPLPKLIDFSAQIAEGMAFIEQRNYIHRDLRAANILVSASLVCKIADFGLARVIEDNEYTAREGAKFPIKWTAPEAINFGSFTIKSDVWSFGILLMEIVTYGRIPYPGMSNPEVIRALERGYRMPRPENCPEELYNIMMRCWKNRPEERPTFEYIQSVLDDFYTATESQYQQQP
Experimental: as §2, §3

[17] = target: T9, KIT(A829P) (Homo sapiens, UniProt P10721, A829P); experiment: ScanMAX Kinase analysis panel (DiscoverX); assay type: binding; settings: read-out: adjusted percentage (% control)
T9 construct: purchased DiscoverX ScanMAX Kinase analysis panel
Experimental: as §2, §3

[18] = target: T10, MEK5 (Homo sapiens, UniProt Q13163); experiment: ScanMAX Kinase analysis panel (DiscoverX); assay type: binding; settings: read-out: adjusted percentage (% control)
T10 construct: purchased DiscoverX ScanMAX Kinase analysis panel
T10 sequence (Q13163 whole entry): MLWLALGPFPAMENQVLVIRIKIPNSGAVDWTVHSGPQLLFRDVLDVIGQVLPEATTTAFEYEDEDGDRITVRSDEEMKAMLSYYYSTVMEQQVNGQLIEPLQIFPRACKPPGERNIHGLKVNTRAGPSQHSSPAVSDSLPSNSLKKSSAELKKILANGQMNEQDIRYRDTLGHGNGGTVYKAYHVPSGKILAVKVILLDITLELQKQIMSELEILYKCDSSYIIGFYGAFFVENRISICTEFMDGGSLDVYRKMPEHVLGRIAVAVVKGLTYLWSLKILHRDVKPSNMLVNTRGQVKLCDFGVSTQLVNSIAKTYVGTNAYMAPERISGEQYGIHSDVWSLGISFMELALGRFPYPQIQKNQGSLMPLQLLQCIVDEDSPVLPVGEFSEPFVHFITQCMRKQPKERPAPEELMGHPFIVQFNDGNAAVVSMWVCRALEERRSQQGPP
Experimental: as §2, §3

[19] = target: T11, MST1 (Homo sapiens, UniProt Q13043); experiment: ScanMAX Kinase analysis panel (DiscoverX); assay type: binding; settings: read-out: adjusted percentage (% control)
T11 construct: purchased DiscoverX ScanMAX Kinase analysis panel
T11 sequence (Q13043 whole entry): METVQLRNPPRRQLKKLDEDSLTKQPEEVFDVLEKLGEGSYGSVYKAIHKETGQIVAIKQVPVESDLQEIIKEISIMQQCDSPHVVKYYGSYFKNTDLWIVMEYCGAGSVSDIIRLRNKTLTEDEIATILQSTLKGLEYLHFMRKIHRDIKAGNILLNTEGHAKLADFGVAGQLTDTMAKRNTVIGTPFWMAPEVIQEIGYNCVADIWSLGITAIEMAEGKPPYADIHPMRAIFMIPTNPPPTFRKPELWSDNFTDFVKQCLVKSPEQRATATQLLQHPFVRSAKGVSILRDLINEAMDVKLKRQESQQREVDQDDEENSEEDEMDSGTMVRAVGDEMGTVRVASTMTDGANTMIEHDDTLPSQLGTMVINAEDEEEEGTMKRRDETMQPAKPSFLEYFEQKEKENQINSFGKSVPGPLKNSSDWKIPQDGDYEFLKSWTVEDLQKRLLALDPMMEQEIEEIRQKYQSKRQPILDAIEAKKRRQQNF
Experimental: as §2, §3

[20] = target: T12, PLK4 (Homo sapiens, UniProt O00444); experiment: ScanMAX Kinase analysis panel (DiscoverX); assay type: binding; settings: read-out: adjusted percentage (% control)
T12 construct: purchased DiscoverX ScanMAX Kinase analysis panel
T12 sequence (O00444 whole entry): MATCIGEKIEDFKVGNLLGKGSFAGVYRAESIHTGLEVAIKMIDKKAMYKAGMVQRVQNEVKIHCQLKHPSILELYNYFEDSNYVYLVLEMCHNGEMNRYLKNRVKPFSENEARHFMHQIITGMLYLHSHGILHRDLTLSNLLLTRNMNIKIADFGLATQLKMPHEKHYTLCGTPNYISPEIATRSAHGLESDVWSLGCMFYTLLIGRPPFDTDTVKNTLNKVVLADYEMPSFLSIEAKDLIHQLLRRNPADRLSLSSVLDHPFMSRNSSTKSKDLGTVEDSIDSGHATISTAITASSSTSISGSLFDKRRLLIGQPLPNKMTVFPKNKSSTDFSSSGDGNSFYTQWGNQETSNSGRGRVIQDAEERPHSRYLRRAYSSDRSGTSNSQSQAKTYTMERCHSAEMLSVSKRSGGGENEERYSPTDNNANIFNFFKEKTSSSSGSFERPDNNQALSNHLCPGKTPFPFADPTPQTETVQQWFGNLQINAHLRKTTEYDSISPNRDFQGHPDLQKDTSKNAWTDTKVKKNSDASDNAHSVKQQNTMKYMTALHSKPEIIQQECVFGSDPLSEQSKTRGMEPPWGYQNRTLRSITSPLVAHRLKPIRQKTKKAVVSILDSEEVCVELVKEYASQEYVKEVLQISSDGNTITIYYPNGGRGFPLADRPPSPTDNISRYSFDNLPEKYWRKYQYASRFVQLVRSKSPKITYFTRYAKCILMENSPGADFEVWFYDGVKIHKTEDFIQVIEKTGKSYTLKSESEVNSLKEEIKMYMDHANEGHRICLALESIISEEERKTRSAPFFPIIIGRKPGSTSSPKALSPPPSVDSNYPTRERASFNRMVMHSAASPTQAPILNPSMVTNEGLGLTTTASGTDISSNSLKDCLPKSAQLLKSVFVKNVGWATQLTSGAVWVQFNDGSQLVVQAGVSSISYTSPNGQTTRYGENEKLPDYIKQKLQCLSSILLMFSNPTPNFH
Experimental: as §2, §3

[21] = target: T13, RET(M918T) (Homo sapiens, UniProt P07949, M918T); experiment: ScanMAX Kinase analysis panel (DiscoverX); assay type: binding; settings: read-out: adjusted percentage (% control)
T13 construct: purchased DiscoverX ScanMAX Kinase analysis panel
T13 sequence (P07949 29-1114 M918T): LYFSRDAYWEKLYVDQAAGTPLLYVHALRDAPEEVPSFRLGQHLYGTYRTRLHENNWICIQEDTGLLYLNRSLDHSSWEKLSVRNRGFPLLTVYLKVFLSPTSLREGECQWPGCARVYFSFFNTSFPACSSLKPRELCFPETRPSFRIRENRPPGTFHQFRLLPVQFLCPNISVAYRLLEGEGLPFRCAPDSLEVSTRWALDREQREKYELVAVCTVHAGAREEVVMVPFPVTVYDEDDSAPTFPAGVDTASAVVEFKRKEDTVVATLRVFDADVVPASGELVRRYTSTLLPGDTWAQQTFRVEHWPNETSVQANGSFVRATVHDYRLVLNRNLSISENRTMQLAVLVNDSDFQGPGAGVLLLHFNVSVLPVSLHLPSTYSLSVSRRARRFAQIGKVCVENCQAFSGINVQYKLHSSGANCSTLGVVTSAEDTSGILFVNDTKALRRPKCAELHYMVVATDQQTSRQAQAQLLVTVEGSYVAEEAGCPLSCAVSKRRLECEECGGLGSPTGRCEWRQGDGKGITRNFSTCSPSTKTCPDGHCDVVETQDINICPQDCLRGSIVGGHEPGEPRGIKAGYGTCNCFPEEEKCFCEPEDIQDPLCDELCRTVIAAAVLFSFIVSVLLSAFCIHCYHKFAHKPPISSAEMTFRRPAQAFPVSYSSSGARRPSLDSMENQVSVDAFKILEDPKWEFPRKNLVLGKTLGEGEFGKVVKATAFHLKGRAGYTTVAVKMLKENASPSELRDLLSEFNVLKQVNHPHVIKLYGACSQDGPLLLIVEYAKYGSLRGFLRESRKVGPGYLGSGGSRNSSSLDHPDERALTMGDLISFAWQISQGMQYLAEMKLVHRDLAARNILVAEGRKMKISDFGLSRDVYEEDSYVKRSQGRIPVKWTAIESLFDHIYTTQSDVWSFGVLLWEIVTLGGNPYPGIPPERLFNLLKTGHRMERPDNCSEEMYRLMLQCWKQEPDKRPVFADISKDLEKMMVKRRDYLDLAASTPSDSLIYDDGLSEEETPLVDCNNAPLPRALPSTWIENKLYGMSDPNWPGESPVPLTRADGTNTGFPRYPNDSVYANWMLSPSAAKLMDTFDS
Experimental: as §2, §3

[22] = target: T14, SNARK (Homo sapiens, UniProt Q9H093); experiment: ScanMAX Kinase analysis panel (DiscoverX); assay type: binding; settings: read-out: adjusted percentage (% control)
T14 construct: purchased DiscoverX ScanMAX Kinase analysis panel
Experimental: as §2, §3

[23] = target: T15, SYK (Homo sapiens, UniProt P43405); experiment: ScanMAX Kinase analysis panel (DiscoverX); assay type: binding; settings: read-out: adjusted percentage (% control)
T15 construct: purchased DiscoverX ScanMAX Kinase analysis panel
Experimental: as §2, §3

[24] = target: T16, TRKB (Homo sapiens, UniProt Q16620); experiment: ScanMAX Kinase analysis panel (DiscoverX); assay type: binding; settings: read-out: adjusted percentage (% control)
T16 construct: purchased DiscoverX ScanMAX Kinase analysis panel
T16 sequence (Q16620 32-822): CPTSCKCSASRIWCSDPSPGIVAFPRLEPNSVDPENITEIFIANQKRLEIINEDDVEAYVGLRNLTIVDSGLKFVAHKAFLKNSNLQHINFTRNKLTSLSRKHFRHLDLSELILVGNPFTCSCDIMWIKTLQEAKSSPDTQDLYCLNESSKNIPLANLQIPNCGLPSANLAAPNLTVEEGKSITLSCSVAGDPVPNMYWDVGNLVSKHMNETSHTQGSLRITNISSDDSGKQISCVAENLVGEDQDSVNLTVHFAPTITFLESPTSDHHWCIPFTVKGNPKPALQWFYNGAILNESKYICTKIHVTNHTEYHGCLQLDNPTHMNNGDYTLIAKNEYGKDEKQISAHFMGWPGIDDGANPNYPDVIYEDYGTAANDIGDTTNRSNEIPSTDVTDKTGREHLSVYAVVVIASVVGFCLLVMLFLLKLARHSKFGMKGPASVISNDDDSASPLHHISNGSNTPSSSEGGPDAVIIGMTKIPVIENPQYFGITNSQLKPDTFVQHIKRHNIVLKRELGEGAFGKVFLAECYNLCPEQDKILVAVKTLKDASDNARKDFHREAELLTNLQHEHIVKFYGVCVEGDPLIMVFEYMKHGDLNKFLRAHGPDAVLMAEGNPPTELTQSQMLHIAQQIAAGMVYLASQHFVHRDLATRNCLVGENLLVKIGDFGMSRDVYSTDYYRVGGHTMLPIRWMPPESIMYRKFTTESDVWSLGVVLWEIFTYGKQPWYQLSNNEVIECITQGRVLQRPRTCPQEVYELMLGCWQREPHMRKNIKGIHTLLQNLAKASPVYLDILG
Experimental: as §2, §3

[25] = target: T17, TRKC (Homo sapiens, UniProt Q16288); experiment: ScanMAX Kinase analysis panel (DiscoverX); assay type: binding; settings: read-out: adjusted percentage (% control)
T17 construct: purchased DiscoverX ScanMAX Kinase analysis panel
Experimental: as §2, §3

SMILES: COc1ccc(CN2C3CC2CN(c2ccc(-c4nc(Nc5cc(C)[nH]n5)c5ccccc5n4)cn2)C3)cn1 [Example 3, 2-(6-(6-((6-methoxypyridin-3-yl)methyl)-3,6-diazabicyclo [3.1.1]heptan-3-yl)pyridin-3-yl)-N-(5-methyl-1H-pyrazol-3-yl)quinazolin-4-amine]
- GI50 [1]: 2300 nM
- GI50 [2]: 51 nM
- GI50 [3]: 3 nM
- GI50 [4]: 13 nM
- GI50 [5]: 60 nM
- GI50 [6]: 30 nM
- remaining binding at 1 µM [7]: 17%
- remaining binding at 1 µM [8]: 21%
- remaining binding at 1 µM [9]: 15%
- remaining binding at 1 µM [10]: 34%
- remaining binding at 1 µM [11]: 16%
- remaining binding at 1 µM [12]: 0.55%
- adjusted percentage (% control) [13]: 0%
- adjusted percentage (% control) [14]: 8.8%
- remaining binding at 1 µM [15]: 0%
- remaining binding at 1 µM [16]: 3.2%
- remaining binding at 1 µM [17]: 11%
- remaining binding at 1 µM [18]: 2.2%
- remaining binding at 1 µM [19]: 30%
- remaining binding at 1 µM [20]: 1.2%
- remaining binding at 1 µM [21]: 0.25%
- remaining binding at 1 µM [22]: 17%
- remaining binding at 1 µM [23]: 2.2%
- remaining binding at 1 µM [24]: 2.1%
- remaining binding at 1 µM [25]: 1%

SMILES: COc1ccc(CN2C3CC2CN(c2ccc(-c4nc(Nc5cc(C)[nH]n5)c5occc5n4)cn2)C3)cn1 [Example 1, 2-(6-(6-((6-methoxypyridin-3-yl)methyl)-3,6-diazabicyclo[3.1.1]heptan-3-yl)pyridin-3-yl)-N-(5-methyl-1H-pyrazol-3-yl)furo[3,2-d]pyrimidin-4-amine]
- GI50 [1]: 4900 nM
- GI50 [2]: 59 nM
- GI50 [3]: 19 nM
- GI50 [4]: 19 nM
- GI50 [5]: 14 nM
- GI50 [6]: 88 nM
- remaining binding at 1 µM [7]: 15%
- remaining binding at 1 µM [8]: 20%
- remaining binding at 1 µM [9]: 30%
- remaining binding at 1 µM [10]: 19%
- remaining binding at 1 µM [11]: 8.1%
- remaining binding at 1 µM [12]: 1.5%
- adjusted percentage (% control) [13]: 0%
- adjusted percentage (% control) [14]: 1.4%
- remaining binding at 1 µM [15]: 0%
- remaining binding at 1 µM [16]: 4.1%
- remaining binding at 1 µM [17]: 2.8%
- remaining binding at 1 µM [18]: 9.9%
- remaining binding at 1 µM [19]: 25%
- remaining binding at 1 µM [20]: 1.3%
- remaining binding at 1 µM [21]: 0.9%
- remaining binding at 1 µM [22]: 22%
- remaining binding at 1 µM [23]: 3.1%
- remaining binding at 1 µM [24]: 1.6%
- remaining binding at 1 µM [25]: 0.45%
